Test results as given in patent US7341751B2, “Eggplant extract for medical treatments” (priority 2006, dated 2008).

Columns and labels:
[1] = system: IL-1-beta secretion by peripheral blood mononuclear cells (PBMC); assay: LPS-stimulated PBMC cytokine secretion, IL-1-beta ELISA; format: cell-based, human
Description: (§1) FIG. 1 and the following two tables show data from an in vitro experiment using PBMC from a healthy donor who provided peripheral blood mononuclear cells (PBMC) for this experiment. (PBMC are isolated from whole blood by gradient centrifugation. PBMC contain mostly lymphocytes and monocytes (neutrophils having been excluded by the separation procedure). They are commonly used to assess immune functions in vitro.) The PBMC were stimulated with LPS. (LPS is lipopolysaccharide, a component of bacterial cell wall, which is commonly used as an antigen non-specific stimulator (also called a mitogen) of immune cell proliferation, synthesis and secretion. It is commonly used in vitro to simulate an immune response in vivo. Chemicals which block the LPS stimulated synthesis or secretion of pro-inflammatory mediators by immune cells (primarily lymphocytes and monocytes) may have similar activity in vivo and therefore may have anti-inflammatory activity in vivo.) After 24 to 48 hours, the supernatant from each culture well was collected and assayed for the pro-inflammatory mediator noted (tumer necrosis factor (TNF)-alpha or IL-1-beta using a modified enzyme linked immunosorbent assay (ELISA). […]

[2] = system: TNF-alpha secretion by peripheral blood mononuclear cells (PBMC); assay: LPS-stimulated PBMC cytokine secretion, TNF-alpha ELISA; format: cell-based, human
Description: as §1

[3] = eggplant extract plus iron at 0.25%, percent of maximal secretion

C[C@]12CCC(=O)C=C1CC[C@@H]1[C@@H]2[C@@H](O)C[C@@]2(C)[C@H]1CC[C@]2(O)C(=O)CO [Hydrocortisone]
Mean IL-1 beta release ([1]; eggplant extract + iron at 0.25%, supernatant after 24 to 48 hours, +LPS no drug 3507.8): 1757.8 picograms of cytokine per 1x10^6 cells
Mean IL-1-beta released, percent of +LPS (no drug) [1, 3]: 50%
Mean TNF-alpha release ([2]; eggplant extract + iron at 0.25%, supernatant after 24 to 48 hours, +LPS no drug 11753.0): 298.8 picograms of cytokine per 1x10^6 cells
Mean TNF-alpha released, percent of +LPS (no drug) [2, 3]: 3%
